Experimental data as given in US9763909B2, “Methods for treating inflammation and pain” (Olatec Therapeutics LLC, priority 2012, dated 2017).

Columns and labels:
[1] = system: arachidonic acid induced ear swelling; experiment: Topical arachidonic acid induced ear swelling model, oral administration; type: in vivo, mice; conditions: for % Inhibition: ear swelling at 60 minutes
Method: The test compound, dexamethasone (positive control), and vehicle were orally administered to mice and evaluated for anti-inflammatory activity in the topical arachidonic acid induced ear swelling model in mice. […] All animals were maintained in a controlled temperature (22-24° C.) and humidity (60%-70%) environment with 12-hour light/dark cycles for at least one week prior to use. Arachidonic acid (0.5 mg in 20 μL acetone) was applied topically onto the anterior and posterior surfaces of the right ear of test animals to induce inflammation. […] At 60 minutes after arachidonic acid induction of ear edema, the thickness of the right ear and the left ear was measured and the difference calculated as an indication of the inflammation in the right ear.

tail-flick latency = experiment: Tail-flick latency (52° C. water bath), potentiation of morphine analgesia; type: in vivo, mice
Method: The response of the mice to nociceptive stimuli was evaluated using the time of tail-flick or tail-flick latency from 52° C. water bath. Briefly, the animal was placed in a restrainer with its tail outside. The tail (distal ⅓rd) was immersed into 52° C. water and the time for the mouse to flick its tail out of the water was recorded. The maximum exposure permitted was 10 seconds. If there was no response within 10 seconds, the animal tail was removed from the water to prevent damage to the tail. Baseline data were collected using the tail flick procedure 2 times over 1 hour, prior to any drug administration. The last baseline response data point was used as basal tail flick latency.
3-(methylsulfonyl)acrylonitrile was dissolved in 0.5% methyl cellulose (MC) to 2 mg/mL, and orally administered to mice (n=5) in a volume of 10 ml/kg (20 mg/kg), 1 hour prior to morphine dosing. One mL plastic disposal tuberculin syringes (Becton Dickinson & Co. Franklin Lakes, N.J.) and 20 gauge×38 mm flexible plastic feeding tubes (Instech Laboratories, Plymouth Meeting, Pa.) were used for oral drug administration. Morphine at 5 mg/kg in saline was subcutaneously administered to mice at time zero.
Tail flick measurements were made at 5, 15, 30, 45, 60, and 75 minutes post-morphine administration.
Statistical evaluation was done using an appropriate analysis of variance (ANOVA) using tail flick latencies. […] Analysis with p-values <0.05 is considered significant.

IL-1β = experiment: Inhibition of IL-1β secretion in LPS-stimulated PBMCs; type: cell-based; conditions: Homo sapiens, PBMC; PBMCs stimulated with LPS (50 pg/mL); read-out: EC50 for inhibiting IL-1β
Method: (§1) Objective: Test 3-(methylsulfonyl)acrylonitrile for inhibition of cytokine secretion in peripheral blood mononuclear cells (PBMCs) stimulated with lipopolysaccharide (LPS).
(§2) Cytokines: IL-1β, IL-6, TNFα
(§3) Test Compound Dose Concentrations: 50, 10, 5, 1, 0.5, 0.1 μM
(§4) Cells negative control: Vehicle only/No LPS
(§5) Positive control: Dexamethasone (100 nM, n=2)
(§6) 1. Microtiter plates were seeded with 1×10^4 PBMCs/well in […], culture medium (RPMI 1640, 10% FBS, 1% Pen/Strep, 2 mM L-Alanyl-L-glutamine)
(§7) 2. The plates were incubated at 37° C. in 5% CO2 for 1 hour.
(§8) 3. 10 μL of test compound (at different concentrations), dexamethasone, and vehicle controls were added to appropriate wells, and the plates were incubated at 37° C. in 5% CO2 for 1 hour.
(§9) 4. 40 μL of LPS (50 pg/mL final) were added and the plates were incubated at 37° C. in 5% CO2 for 1 hour.
(§10) 5. The plates were centrifuged at 1000 rpm for 10 minutes and supernatants were collected.
(§11) 6. The supernatants were assayed for IL-1β, IL-6, TNFα levels using the Luminex Bead kit.
(§12) 7. EC50 values were determined.

TNFα = experiment: Inhibition of TNFα secretion in LPS-stimulated PBMCs; type: cell-based; conditions: Homo sapiens, PBMC; PBMCs stimulated with LPS (50 pg/mL); read-out: EC50 for inhibiting TNFα
Method: as §1, §2, §3, §4, §5, §6, §7, §8, §9, §10, §11, §12

IL-6 = experiment: Inhibition of IL-6 secretion in LPS-stimulated PBMCs; type: cell-based; conditions: Homo sapiens, PBMC; PBMCs stimulated with LPS (50 pg/mL); read-out: EC50 for inhibiting IL-6
Method: as §1, §2, §3, §4, §5, §6, §7, §8, §9, §10, §11, §12

C[C@@H]1C[C@H]2[C@@H]3CCC4=CC(=O)C=C[C@]4(C)[C@@]3(F)[C@@H](O)C[C@]2(C)[C@@]1(O)C(=O)CO [Dexamethasone, reference compound]
% Inhibition ([1]; 0.3 mg/kg oral gavage 3 hour before arachidonic acid): 39%

CN1CC[C@]23c4c5ccc(O)c4O[C@H]2[C@@H](O)C=C[C@H]3[C@H]1C5 [morphine, reference compound]
analgesic effect (tail flick), morphine alone (tail-flick latency; morphine 5 mg/kg s.c., 75 minutes post dosing): no effect

CS(=O)(=O)C=CC#N [3-(methylsulfonyl)acrylonitrile]
% Inhibition ([1]; 0.1 mg/kg oral gavage 1 hour before arachidonic acid): 11%
% Inhibition ([1]; 0.3 mg/kg oral gavage 1 hour before arachidonic acid): 11%
% Inhibition ([1]; 1 mg/kg oral gavage 1 hour before arachidonic acid): 9%
% Inhibition ([1]; 3 mg/kg oral gavage 1 hour before arachidonic acid): 13%
% Inhibition ([1]; 10 mg/kg oral gavage 1 hour before arachidonic acid): 26%
inhibition in arachidonic acid induced ear swelling (in words) ([1]; 10 mg/kg oral, at 60 minutes, vs vehicle, t-test p<0.05): significant inhibition
analgesic effect (tail flick), morphine plus compound (tail-flick latency; 20 mg/kg oral 1 hour before morphine 5 mg/kg s.c., 75 minutes post dosing): strong analgesic effects
latency of tail flick, morphine plus compound vs morphine alone (tail-flick latency; 20 mg/kg oral 1 hour before morphine 5 mg/kg s.c., measured at 30, 60, and 75 minutes post morphine dosing): increases the latency of tail flick significantly
EC50 (IL-1β): 160 nM
EC50 (TNFα): 300 nM
EC50 (IL-6): 190 nM
